Earlier results, collected in US11173121B2, “Pellets having a multi-layer structure for delayed release of the active substance in the distal colon” (Dr. Falk Pharma GmbH, priority 2018, dated 2021).

- pKa value: 12.85±0.10
Compound: CCCC1O[C@@H]2C[C@H]3[C@@H]4CCC5=CC(=O)C=C[C@]5(C)[C@H]4[C@@H](O)C[C@]3(C)[C@]2(C(=O)CO)O1 (stereo partly shown) [budesonide]
